Data: PMC8057513, “Comparison of edible brown algae extracts for the inhibition of intestinal carbohydrate digestive enzymes involved in glucose release from the diet” (Journal of Nutritional Science, 2021)
In brackets after ≈: the same amount, converted by molar mass.

Key:
Format in all cases: biochemical
[1] = biological target: T1, maltase (rat intestinal α-glucosidase); test: maltose hydrolysis, released glucose by HPAEC-PAD; Dixon plot; settings: maltose 1.25-5 mM, pH 6.9, 37 °C; competitive; crude intestinal extract
T1 construct: gene Mgam; crude phosphate-buffer supernatant of rat intestinal acetone powder (Sigma-Aldrich, labelled EC 3.2.1.48), not purified; maltose-hydrolysing activity of mixed brush-border alpha-glucosidases
Excerpt: maltose hydrolysis, released glucose by HPAEC-PAD; Dixon plot on maltase (rat intestinal α-glucosidase)

[2] = biological target: T1, maltase (rat intestinal α-glucosidase); test: maltose hydrolysis, released glucose by HPAEC-PAD; settings: 10 mM maltose, phosphate buffer 100 mM pH 6.9, 37 °C, 30 min; crude intestinal extract
Excerpt: maltose hydrolysis, released glucose by HPAEC-PAD on maltase (rat intestinal α-glucosidase)

[3] = test system: T1, maltase (rat intestinal α-glucosidase); test: maltose hydrolysis, released glucose by HPAEC-PAD; Lineweaver-Burk plot; settings: phosphate buffer 100 mM pH 6.9, 37 °C; crude intestinal extract

## C[C@H]1O[C@H](O[C@H]2[C@H](O)[C@@H](O)[C@@H](O[C@H]3[C@H](O)[C@@H](O)C(O)O[C@@H]3CO)O[C@@H]2CO)[C@H](O)[C@@H](O)[C@@H]1N[C@H]1C=C(CO)[C@@H](O)[C@H](O)[C@H]1O (stereo partly drawn) [Acarbose]
[1]
  Ki: 0.07 µg/mL (≈ 0.108 µM)
[2]
  IC50: 0.15 ± 0.02 µg/mL (≈ 0.232 µM)

## OC[C@H]1O[C@H](O[C@H]2[C@H](O)[C@@H](O)C(O)O[C@@H]2CO)[C@H](O)[C@@H](O)[C@@H]1O (stereo partly drawn) [maltose]
[3]
  Km: 5.8 mM
